Activity, IC50 and Kd data for 26 compounds are collected here from ChEMBL document CHEMBL1156608, “Synthesis of stable and selective inhibitors of human galectins-1 and -3” (Bioorg Med Chem, 2008).

Some results are limits rather than exact numbers.

By IC50 is commonly meant the concentration needed to halve the response being measured. What is called Kd is the equilibrium constant for the complex coming apart. A high value points to weaker binding.

Assay [1] concerns the target T1, Galectin-3 (Homo sapiens, UniProt P17931). Nature of the assay: Inhibition of recombinant galectin 3 in human O type red blood cells by hemagglutinination assay relative to galactose.
The target of assay [2] is T2, Galectin-1 (Homo sapiens, UniProt P09382). Nature of the assay: Inhibition of recombinant galectin 1 in human O type red blood cells by hemagglutinination assay relative to galactose.
T2 sequence (P09382 whole entry): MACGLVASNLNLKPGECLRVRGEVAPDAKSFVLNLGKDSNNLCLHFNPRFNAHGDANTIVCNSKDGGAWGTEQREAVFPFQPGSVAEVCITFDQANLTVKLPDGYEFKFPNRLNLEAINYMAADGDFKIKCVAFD
The target of assay [3] is T1, Galectin-3. Nature of the assay: Inhibition of galectin 3.
Assay [4] deals with T2, Galectin-1. Nature of the assay: Binding affinity to galectin 1.
The target in assay [5] is T1, Galectin-3. Nature of the assay: Binding affinity to galectin 3.
Assay [6] addresses T1, Galectin-3. Nature of the assay: Inhibition of recombinant galectin 3 in human O type red blood cells by hemagglutinination assay relative to lactose.
For assay [7], the target named is T2, Galectin-1. Nature of the assay: Inhibition of recombinant galectin 1 in human O type red blood cells by hemagglutinination assay relative to lactose.

T1 sequence (P17931 whole entry): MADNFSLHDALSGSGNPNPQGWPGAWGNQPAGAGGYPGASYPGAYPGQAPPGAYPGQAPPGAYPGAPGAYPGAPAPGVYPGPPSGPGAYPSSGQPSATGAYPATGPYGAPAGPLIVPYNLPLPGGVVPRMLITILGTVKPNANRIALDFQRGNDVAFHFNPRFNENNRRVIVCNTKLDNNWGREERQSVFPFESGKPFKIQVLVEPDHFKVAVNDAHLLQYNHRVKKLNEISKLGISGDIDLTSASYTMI

As for `C=C(C[C@@H]1O[C@H](CO)[C@H](O)[C@H](O)[C@H]1O)c1ccc(OC)cc1`, the Activity on Galectin-3 [1] is 10; at Galectin-1 [2], < 10.

With `COC(=O)/C=C/C[C@@H]1O[C@H](CO)[C@H](O)[C@H](O)[C@H]1O`, the Activity on Galectin-3 [1] and on Galectin-1 [2] was 10 in each case.

Take `OC[C@@H]1O[C@H](O[C@@H]2[C@@H](O)[C@H](O)[C@@H](OCCCCCCO[C@@H]3O[C@H](CO)[C@@H](O[C@@H]4O[C@H](CO)[C@H](O)[C@H](O)[C@H]4O)[C@H](O)[C@H]3O)O[C@H]2CO)[C@@H](O)[C@H](O)[C@@H]1O`: the half-maximal inhibitory concentration (IC50) on Galectin-3 [3] is 163 µM.

With `COC(=O)Cn1cc(C[C@@H]2O[C@H](CO)[C@H](O)[C@H](O)[C@H]2O)nn1` [TRIAZOLYL GALACTOSIDE], the Kd at Galectin-1 [4] turned out to be 5000 µM.

Turning to `O=C(N[C@@H]1[C@H](O)[C@H](CO)O[C@H](S[C@@H]2O[C@H](CO)[C@H](O)[C@H](NC(=O)c3ccc([N+](=O)[O-])cc3)[C@H]2O)[C@H]1O)c1ccc([N+](=O)[O-])cc1`, binding on Galectin-3 [5] was put at a Kd of 0.033 µM.

As for `OC[C@@H]1O[C@H](O[C@@H]2[C@@H](O)[C@H](O)[C@@H](n3cc(CS[C@@H]4O[C@H](CO)[C@H](O)[C@H](O)[C@H]4O)nn3)O[C@H]2CO)[C@@H](O)[C@H](O)[C@@H]1O`, the Activity at Galectin-3 [6] was 0.7; at Galectin-1 [7], 1.3; on Galectin-3 [1] it was 1.3; on Galectin-1 [2], 2.6.

Turning to `C/C=C/[C@@H]1O[C@H](CO)[C@H](O)[C@H](O)[C@H]1O`, the Activity at Galectin-3 [1] and on Galectin-1 [2] was < 10 in each case.

Regarding `COC(=O)/C=C(\C[C@@H]1O[C@H](CO)[C@H](O)[C@H](O)[C@H]1O)c1ccccc1`, the values for the Activity at Galectin-3 [1] and on Galectin-1 [2] were < 10 and 160, respectively.

For `OC[C@H]1O[C@@H](C/C=C/c2ccccc2)[C@H](O)[C@@H](O)[C@H]1O`, the Activity at Galectin-3 [1] and on Galectin-1 [2] was < 10 in each case.

On to `OC[C@@H]1O[C@H](n2cc(CS[C@@H]3O[C@H](CO)[C@H](O)[C@H](O)[C@H]3O)nn2)[C@@H](O)[C@H](O)[C@@H]1O`, for which the Activity on Galectin-3 [6] was 10; on Galectin-3 [1] it was 20; at Galectin-1 [2], < 10.

As for `CO[C@@H]1O[C@H](CO)[C@@H](O[C@@H]2O[C@H](CO)[C@H](O)[C@H](O)[C@H]2O)[C@H](O)[C@H]1NC(C)=O`, the Activity at Galectin-3 [5] was 67 µM.

As to `O=C[C@H](O)[C@@H](O)[C@@H](O)[C@H](O)CO`, the Activity at Galectin-3 [1] and on Galectin-1 [2] was 1 each time.

In the case of `O=S(=O)(c1ccc2ccccc2c1)[C@@H]1O[C@H](CO)[C@@H](O[C@@H]2O[C@H](CO)[C@H](O)[C@H](O)[C@H]2O)[C@H](O)[C@H]1O`, the dissociation constant Kd at Galectin-3 [5] was 313 µM; on Galectin-1 [4], 40 µM.

`OC[C@@H]1O[C@H](SCC#CC#CCS[C@@H]2O[C@H](CO)[C@H](O)[C@H](O)[C@H]2O)[C@@H](O)[C@@H](O)[C@@H]1O`: the Activity was 5 on Galectin-1 [7], < 10 at Galectin-3 [1] and 10 on Galectin-1 [2].

Regarding `OC[C@@H]1O[C@H](O[C@@H]2[C@@H](O)[C@H](O)[C@@H](n3cc(CS[C@@H]4O[C@H](CO)[C@@H](O[C@@H]5O[C@H](CO)[C@H](O)[C@H](O)[C@H]5O)[C@H](O)[C@H]4O)nn3)O[C@H]2CO)[C@@H](O)[C@H](O)[C@@H]1O`, the Activity at Galectin-3 [6] worked out at 2.5; on Galectin-1 [7], 1.3; at Galectin-3 [1] it was 5; on Galectin-1 [2], 2.6.

For the compound `OC[C@H]1O[C@@H](C/C=C/c2cccc(/C=C/C[C@@H]3O[C@H](CO)[C@H](O)[C@H](O)[C@H]3O)c2)[C@H](O)[C@@H](O)[C@H]1O`, the Activity on Galectin-1 [7] was 5; at Galectin-3 [1], < 10; on Galectin-1 [2], 10.

As for `CC(=O)C[C@@H]1O[C@H](CO)[C@H](O)[C@H](O)[C@H]1O`, the Activity on Galectin-3 [1] was 10; on Galectin-1 [2], < 10.

LACTOSE, ANHYDROUS: the Activity at Galectin-3 [1] and on Galectin-1 [2] was 1 throughout.

On Galectin-3 [5], `CO[C@@H]1O[C@H](CO)[C@@H](O[C@@H]2O[C@H](CO)[C@H](O)[C@H](O)[C@H]2O)[C@H](O)[C@H]1O` had an Activity of 220 µM.

On to `C#CCS[C@@H]1O[C@H](CO)[C@H](O)[C@H](O)[C@H]1O`, for which the Activity was 20 on Galectin-3 [1] and < 10 at Galectin-1 [2].

As to `OC[C@@H]1O[C@H](O[C@@H]2[C@@H](O)[C@H](O)[C@@H](SCC#CC#CCS[C@@H]3O[C@H](CO)[C@@H](O[C@@H]4O[C@H](CO)[C@H](O)[C@H](O)[C@H]4O)[C@H](O)[C@H]3O)O[C@H]2CO)[C@@H](O)[C@H](O)[C@@H]1O`, the Activity on Galectin-3 [6] worked out at 2.5; on Galectin-1 [7], 1.3; at Galectin-3 [1] it was 5; on Galectin-1 [2], 2.6.

With `CO[C@@H]1O[C@H](CO)[C@@H](O[C@@H]2O[C@H](CO)[C@H](O)[C@H](NC(=O)c3cc4ccccc4cc3C(=O)O)[C@H]2O)[C@H](O)[C@H]1NC(C)=O`, on Galectin-3 [5], binding was characterised by a dissociation constant (Kd) of 0.3 µM.

Consider `OC[C@@H]1O[C@H](n2cc(CS[C@@H]3O[C@H](CO)[C@@H](O[C@@H]4O[C@H](CO)[C@H](O)[C@H](O)[C@H]4O)[C@H](O)[C@H]3O)nn2)[C@@H](O)[C@H](O)[C@@H]1O`, for which the Activity was determined as 1.3 on Galectin-3 [6], 0.7 on Galectin-1 [7], 2.6 at Galectin-3 [1] and 1.3 on Galectin-1 [2].

`C#CCS[C@@H]1O[C@H](CO)[C@@H](O[C@@H]2O[C@H](CO)[C@H](O)[C@H](O)[C@H]2O)[C@H](O)[C@H]1O`: the results for the Activity at Galectin-3 [1] and on Galectin-1 [2] were 2.6 and 1.3, respectively.

As to `C=C(C[C@@H]1O[C@H](CO)[C@H](O)[C@H](O)[C@H]1O)c1cccc([N+](=O)[O-])c1`, the Activity at Galectin-3 [1] was < 10; at Galectin-1 [2] it was 10.

On to `OC[C@@H]1O[C@H](SCC#Cc2ccc(C#CCS[C@@H]3O[C@H](CO)C(O)[C@H](O)[C@H]3O)cc2)[C@@H](O)[C@H](O)[C@@H]1O` (single isomer, unassigned), for which the Activity was 10 on Galectin-1 [7], < 10 on Galectin-3 [1] and 20 at Galectin-1 [2].
